In ChEMBL document CHEMBL4130638, “Discovery of the Polyamine Conjugate with Benzo[ cd]indol-2(1 H)-one as a Lysosome-Targeted Antimetastatic Agent” (J Med Chem, 2018):
Activity calls are given as the source filed them. The calls are words filed in the database; no cut-off is given here.

Assays:
[1] = tested on: K562; experiment: Growth inhibition of human K562 cells after 48 hrs by MTT assay; format: functional, cell-based; conditions: K562, 48 h
[2] = tested on: HCT-116; experiment: Growth inhibition of human HCT116 cells after 24 hrs by MTT assay; format: functional, cell-based
[3] = tested on: CT26; experiment: Growth inhibition of mouse CT26 cells after 24 hrs by MTT assay; format: functional, cell-based
[4] = tested on: CT26; experiment: Antimetastatic activity against mouse CT26 cells implanted in Balb/c mouse assessed as inhibition of pulmonary metastasis nodules at 1 mg/kg, iv for 7 consecutive days starting from day 8 post tumor implantation measured on day 15 post tumor implantation relative to control; format: functional
[5] = tested on: CT26; experiment: Antitumor activity against mouse CT26 cells implanted in Balb/c mouse assessed as solid tumor growth inhibition at 1 mg/kg, iv for 14 consecutive days measured on day 15 relative to control; format: functional; conditions: 360 h, read-out: TGI
[6] = tested on: Mus musculus; experiment: Toxicity in Balb/c mouse implanted with mouse CT26 cells assessed as changes in body weight at 1 mg/kg, iv for 7 consecutive days starting from day 8 post tumor implantation; format: organism-based; conditions: in vivo
[7] = tested on: Mus musculus; experiment: Toxicity in Balb/c mouse implanted with mouse CT26 cells assessed as increase in liver weight at 1 mg/kg, iv for 7 consecutive days starting from day 8 post tumor implantation; format: organism-based; conditions: in vivo
[8] = tested on: Mus musculus; experiment: Toxicity in Balb/c mouse implanted with mouse CT26 cells assessed as increase in spleen weight at 1 mg/kg, iv for 14 consecutive days starting from day 8 post tumor implantation; format: organism-based; conditions: in vivo
[9] = tested on: HCT-116; experiment: Upregulation of SSAT protein expression in human HCT116 cells at 2.5 to 10 uM after 24 hrs by Western blot method; format: functional, cell-based
[10] = tested on: HCT-116; experiment: Decrease in spermine level in human HCT116 cells at 2.5 to 10 uM after 24 hrs by G1321A fluorescence detector coupled HPLC analysis; format: functional, cell-based
[11] = tested on: HCT-116; experiment: Decrease in spermidine level in human HCT116 cells at 2.5 to 10 uM after 24 hrs by G1321A fluorescence detector coupled HPLC analysis; format: functional, cell-based
[12] = tested on: HCT-116; experiment: Decrease in putrescine level in human HCT116 cells at 2.5 to 10 uM after 24 hrs by G1321A fluorescence detector coupled HPLC analysis; format: functional, cell-based
[13] = Drug uptake in human HCT116 cells by confocal microscopic method; format: ADME, cell-based; conditions: hct-116
[14] = Drug uptake in lysosomes isolated from human HCT116 cells at 10 uM after 8 hrs by Lyso-tracker staining based confocal microscopic method; format: ADME, subcellular, Lysosome; conditions: hct-116, 8 h
[15] = tested on: HCT-116; experiment: Induction of autophagy in human HCT116 cells after 24 hrs by MDC staining based flow cytometry; format: functional, cell-based
[16] = tested on: HCT-116; experiment: Induction of apoptosis in human HCT116 cells assessed as late apoptotic cells at 10 uM after 24 hrs by annexin V-FITC/propidium iodide staining based flow cytometry (reference value: 2.03%); format: functional
[17] = tested on: HCT-116; experiment: Induction of apoptosis in human HCT116 cells assessed as late apoptotic cells at 10 uM after 24 hrs in presence of pan-caspase inhibitor Z-VAD-FMK by annexin V-FITC/propidium iodide staining based flow cytometry (reference value: 2.03%); format: functional
[18] = tested on: HCT-116; experiment: Induction of apoptosis in human HCT116 cells assessed as necrotic cells at 10 uM after 24 hrs in presence of pan-caspase inhibitor Z-VAD-FMK by annexin V-FITC/propidium iodide staining based flow cytometry (reference value: 3.9%); format: functional
[19] = tested on: CT26; experiment: Induction of apoptosis in mouse CT26 cells assessed as live cells at 10 uM after 24 hrs by annexin V-FITC/propidium iodide staining based flow cytometry (reference value: 89.47%); format: functional
[20] = tested on: CT26; experiment: Induction of apoptosis in mouse CT26 cells assessed as late apoptotic cells at 10 uM after 24 hrs by annexin V-FITC/propidium iodide staining based flow cytometry (reference value: 2.26%); format: functional
[21] = tested on: CT26; experiment: Induction of apoptosis in mouse CT26 cells assessed as early apoptotic cells at 10 uM after 24 hrs in presence of autophagy inhibitor 3-MA by annexin V-FITC/propidium iodide staining based flow cytometry (reference value: 3.91%); format: functional
[22] = tested on: CT26; experiment: Induction of apoptosis in mouse CT26 cells assessed as necrotic cells at 10 uM after 24 hrs in presence of autophagy inhibitor 3-MA by annexin V-FITC/propidium iodide staining based flow cytometry (reference value: 4.36%); format: functional
[23] = tested on: CT26; experiment: Induction of apoptosis in mouse CT26 cells assessed as late apoptotic cells after 24 hrs by annexin V-FITC/propidium iodide staining based flow cytometry; format: functional, cell-based
[24] = tested on: HCT-116; experiment: Induction of apoptosis in human HCT116 cells assessed as early apoptotic cells after 24 hrs by annexin V-FITC/propidium iodide staining based flow cytometry; format: functional, cell-based
[25] = tested on: HCT-116; experiment: Induction of apoptosis in human HCT116 cells assessed as late apoptotic cells after 24 hrs by annexin V-FITC/propidium iodide staining based flow cytometry; format: functional, cell-based
[26] = tested on: HCT-116; experiment: Induction of autophagy in human HCT116 cells at 1 to 20 uM after 24 hrs by Lyso staining based flow cytometry; format: functional, cell-based
[27] = tested on: CT26; experiment: Induction of autophagy in mouse CT26 cells at 10 to 20 uM after 24 hrs in presence of autophagy inhibitor 3-MA by Lyso staining based flow cytometry; format: functional, cell-based
[28] = tested on: HCT-116; experiment: Induction of autophagy in human HCT116 cells at 5 to 20 uM after 24 hrs in presence of pan-caspase inhibitor Z-VAD-FMK by MDC staining based flow cytometry; format: functional, cell-based
[29] = tested on: HCT-116; experiment: Induction of autophagy in human HCT116 cells assessed as accumulation of LC3-2 after 24 hrs by Western blot method; format: functional, cell-based
[30] = tested on: HCT-116; experiment: Upregulation of LAMP2 protein expression in human HCT116 cells at 10 uM after 24 hrs by Western blot method; format: functional, cell-based
[31] = tested on: HCT-116; experiment: Downregulation of cathepsin-L protein expression in human HCT116 cells after 24 hrs by Western blot method; format: functional, cell-based
[32] = tested on: HCT-116; experiment: Downregulation of p62 protein expression in human HCT116 cells after 24 hrs by Western blot method; format: functional, cell-based
[33] = tested on: HCT-116; experiment: Downregulation of MMP2 protein expression in human HCT116 cells after 24 hrs by Western blot method; format: functional, cell-based
[34] = tested on: HCT-116; experiment: Upregulation of cleaved caspase-3 protein expression in human HCT116 cells up to 10 uM after 24 hrs by Western blot method; format: functional, cell-based
[35] = tested on: HCT-116; experiment: Downregulation of Akt protein expression in human HCT116 cells up to 10 uM after 24 hrs by Western blot method; format: functional, cell-based
[36] = tested on: HCT-116; experiment: Downregulation of Bcl2 protein expression in human HCT116 cells up to 10 uM after 24 hrs by Western blot method; format: functional, cell-based
[37] = tested on: HCT-116; experiment: Upregulation of p53 protein expression in human HCT116 cells after 24 hrs by Western blot method; format: functional, cell-based
[38] = tested on: HCT-116; experiment: Upregulation of cleaved caspase-8 protein expression in human HCT116 cells up to 10 uM after 24 hrs in presence of autophagy inhibitor 3-MA by Western blot method; format: functional, cell-based
[39] = tested on: HCT-116; experiment: Downregulation of Bcl2 protein expression in human HCT116 cells up to 10 uM after 24 hrs in presence of autophagy inhibitor 3-MA by Western blot method; format: functional, cell-based
[40] = tested on: HCT-116; experiment: Upregulation of p53 protein expression in human HCT116 cells up to 10 uM after 24 hrs in presence of autophagy inhibitor 3-MA by Western blot method; format: functional, cell-based

IC50 [1]: 12 µM
IC50 ([2]; HCT-116, 24 h): 6.9 µM
IC50 ([3]; CT26, 24 h): 11.6 µM
Drug uptake [13]: Dose-dependent effect and Tde
Drug uptake [14]: Active
Compound: Cl.Cl.Cl.NCCCCNCCCCNCCCCN1C(=O)c2cccc3cccc1c23
growth inhibition (GI) [2]: Dose-dependent effect
growth inhibition (GI) [3]: Dose-dependent effect
inhibition in vivo at 1 mg/kg [4]: 82.5%
inhibition in vivo at 1 mg/kg [5]: 46.9%
Activity [6]: Non-Toxic
Activity [7]: Toxic
Activity [8]: Toxic
Activity [9]: Dose-dependent effect
Activity [10]: Active
Activity [11]: Active
Activity [12]: inactive
Activity [15]: Dose-dependent effect
Activity [16]: 27.58%
Activity [17]: 13.6%
Activity [18]: 8.07%
Activity [19]: 30.85%
Activity [20]: 23.22%
Activity [21]: 27.36%
Activity [22]: 4.42%
Activity [23]: Dose-dependent effect
Activity [24]: Dose-dependent effect
Activity [25]: Dose-dependent effect
Activity [26]: Active
Activity [27]: inactive
Activity [28]: inactive
Activity [29]: Dose-dependent effect
Activity [30]: Active
Activity [31]: Dose-dependent effect
Activity [32]: Dose-dependent effect
Activity [33]: Dose-dependent effect
Activity [34]: Active
Activity [35]: Active
Activity [36]: Active
Activity [37]: Dose-dependent effect
Activity [38]: inactive
Activity [39]: inactive
Activity [40]: inactive
